Results as given in patent US20050287552A1, “Carbohydrate encapsulated nanoparticle based affinity mass spectrometry” (Academia Sinica, Office of Public Affairs (Technology …, priority 2003, published 2005).

Target: Con A (Canavalia ensiformis, UniProt P02866)
Assay: SPR competition binding assay for Con A
Conditions: Con A tetramer 0.5 uM, pre-incubated 1 hr with inhibitor
Protocol: A self-assembled monolayer composed of 20% mannopyranoside ligand and 80% thiobutanol mixture was generated on a J1 biosensor chip (See FIG. 9). In particular, immobilization of ligand to the biosensor chip was preformed in BIAcore 3000 instrument. A mixture of 4-mercapto-1-butanol (Ligand A) and 5-thiopentyl α-D-mannopyranoside (Ligand B) in deionized water was injected into a flow cell with the J1 biochip.
Next, the binding affinity of Con A for this chip was determined by titration with a series of Con A concentrations to generate multiple SPR curves. In particular, Con A was dissolved in sample buffer (1.0 mL, 20 mM HEPES, pH 7.0, 90 mM NaCl with 1 mM MnCl2 and CaCl2) and then filtered by a syringe. Con A solution (50 μL) was injected over immobilized biosensor surface and allowed 260 seconds for dissociation and then followed by regeneration buffer. A set of SPR response curves was obtained after different concentrations of Con A solution were applied (See FIG. 10A, showing curves for 6, 3, 1.5, 0.38, 0.19 uM of Con A (top to bottom)).
Competition assays were then conducted. […] The mixture (50 uL) was then injected and the flow rate was controlled at 60 uL/minute. The equilibrium binding response values was collected at equilibrium binding portion of the curve (260 seconds post-injection). […]

Substance: α-D-methyl-mannopyrannoside [αMeMan]
- Ki: 200 µM
